The experiment deals with H9. The experiment is described as follows: Compound was found to have no significant inhibitory activity against HIV in H9 cells. In kind it is functional, cell-based. The conditions noted are these: Homo sapiens.

For `Cc1cn(C2CC(CO)C(O)C2F)c(=O)[nH]c1=O` (configuration not stated), the Activity entry is “No significant inhibitory activity against HIV in H9 cells”. To `Cn1cc([C@H]2C[C@H](N=[N+]=[N-])[C@@H](CO)O2)c(=O)[nH]c1=O` belongs “No significant inhibitory activity against HIV in H9 cells”.
